The values that follow come from patent publication US20250215029A1 (Recludix Pharma, Inc., priority 2022, published 2025).

T1 sequence (P40763 whole entry): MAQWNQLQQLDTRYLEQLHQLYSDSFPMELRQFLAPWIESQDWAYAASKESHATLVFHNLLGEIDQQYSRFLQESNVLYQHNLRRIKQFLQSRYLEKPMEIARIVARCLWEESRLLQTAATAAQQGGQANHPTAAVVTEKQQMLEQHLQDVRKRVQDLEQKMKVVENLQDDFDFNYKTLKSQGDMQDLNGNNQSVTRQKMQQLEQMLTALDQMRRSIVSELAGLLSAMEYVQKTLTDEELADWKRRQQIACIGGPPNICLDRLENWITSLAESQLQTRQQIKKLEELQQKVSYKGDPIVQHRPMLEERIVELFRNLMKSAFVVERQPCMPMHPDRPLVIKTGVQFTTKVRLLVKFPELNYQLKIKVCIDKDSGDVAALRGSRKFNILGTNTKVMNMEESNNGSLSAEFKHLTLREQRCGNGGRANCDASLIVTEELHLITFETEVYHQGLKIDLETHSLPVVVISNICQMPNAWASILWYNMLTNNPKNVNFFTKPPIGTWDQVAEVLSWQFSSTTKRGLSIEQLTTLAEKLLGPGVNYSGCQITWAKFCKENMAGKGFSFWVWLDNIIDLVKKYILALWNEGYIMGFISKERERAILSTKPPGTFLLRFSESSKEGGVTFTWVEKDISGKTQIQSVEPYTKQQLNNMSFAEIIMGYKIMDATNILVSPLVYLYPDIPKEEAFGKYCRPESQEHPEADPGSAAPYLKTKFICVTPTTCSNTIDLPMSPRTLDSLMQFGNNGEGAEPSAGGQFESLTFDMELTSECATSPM

This test concerns the target T1, pY705-STAT3 in PBMC (Homo sapiens, UniProt P40763).
T1 construct: Cryopreserved Peripheral Blood Mononuclear Cells (PBMC) are from AllCells; host or cells: cryopreserved PBMC
In words: MSD-pSTAT-PBMC Assay (pSTAT3, IL-6 stimulated). The test is classed as cell-based. As to conditions: PBMC, compound 3 hrs, then 10 ng/mL IL-6 for 10 min; Table 115; read-out: STAT3. The text has this:
Cryopreserved Peripheral Blood Mononuclear Cells (PBMC) are from AllCells. Recombinant Human IL-4 and IL-6 are from Peprotech. Mouse monoclonal anti-STAT3 antibody, rabbit monoclonal anti-pY705-STAT3 antibody, rabbit monoclonal Anti-pY641-STAT6 antibody, and lysis buffer are from Cell Signaling Technology (CST). Mouse monoclonal anti-STAT6 antibody is from BioLegend. Assay plates, blocker, and anti-rabbit secondary antibody are from Meso Scale Discovery (MSD).
Cyropreserved PBMCs were thawed out and allowed to recover overnight in IMDM+10% heat-inactivated FBS prior to plating 50,000 (STAT3) or 25,000 (STAT6) cells per well in 96-well U-bottom tissue culture plates. Cells were treated with compound for 3 hrs, then stimulated with 10 ng/mL IL-6 (STAT3) or 1 ng/mL IL-4 (STAT6) for 10 min. Cells were then spun down and washed with ice-cold PBS prior to lysing the cell pellet with 1× lysis buffer (CST) with 1× HALT protease and phosphatase inhibitor cocktail (Thermo). Lysates were transferred to and incubated overnight at 4° C. with shaking in QuickPlex 96-well high bind assay plates (MSD) pre-coated overnight with 30 μL per well of 0.6 μg/mL mouse monoclonal anti-STAT3 antibody (STAT3) or 2 μg/mL mouse monoclonal anti-STAT6 antibody (STAT6) in 1× PBS, and pre-blocked for 1 hour with 3% Blocker-A (MSD). Captured protein in the assay plates were then washed and probed with 25 μL per well of […] rabbit monoclonal anti-pY705-STAT3 antibody (STAT3) or 0.18 μg/ml rabbit monoclonal Anti-pY641-STAT6 antibody (STAT6) in 1% Blocker-A for 1 hour at room temperature with shaking, then washed and probed with 25 ul per well of 1 ug/ml Sulfo-TAG Labeled Goat Anti-Rabbit Antibody (MSD) in 1% Blocker-A for 1 hour at room temperature with shaking. Assay plates were then washed and 150 μL of 1× Read Buffer-T (MSD) was added to each well prior to reading on an SQ120 MSD Plate Reader. Assay signal from each sample was subtracted by the signal from unstimulated control wells and normalized to DMSO control wells. IC50 values were calculated using Graph Pad Prism Dose-Response Nonlinear Regression with variable slope. For both pSTAT3 and pSTAT6 A=≤100 nM; B 100-1000 nM; C=>1000-3000 nM; D=>3 μM; and NT=Not Tested.
With `CCOC(=O)[C@H](Cc1ccccc1)NP(=O)(Cc1ccc2sc(C(=O)N[C@H]3CCC[C@H]4CC[C@@H](C(=O)N5CC(c6cccnc6)C5)N4C3=O)cc2c1)Oc1ccccc1` (stereo partly drawn) [Compound 389, ethyl (((2-(((3S,6S,9aS)-5-oxo-3-(3-(pyridin-3-yl)azetidine-1-carbonyl)octahydro-1H-pyrrolo[1,2-a]azepin-6-yl)carbamoyl)benzo [b]thiophen-5-yl)methyl)(phenoxy)phosphoryl)-L-phenylalaninate], the IC50 was in the range of 100 to 1000 nM.
On to `CC(C)C[C@H](NP(=O)(Cc1ccc2sc(C(=O)N[C@H]3CCC[C@H]4CC[C@@H](C(=O)N5CC(c6cccnc6)C5)N4C3=O)cc2c1)Oc1ccccc1)C(=O)OCc1ccccc1` (stereo partly drawn) [Compound 390, benzyl (((2-(((3S,6S,9aS)-5-oxo-3-(3-(pyridin-3-yl)azetidine-1-carbonyl)octahydro-1H-pyrrolo[1,2-a]azepin-6-yl)carbamoyl)benzo [b]thiophen-5-yl)methyl)(phenoxy)phosphoryl)-L-leucinate], for which the IC50 fell in the range of 100 to 1000 nM.
For `CC(C)(C)C(=O)SCCOP(=O)(OCCSC(=O)C(C)(C)C)C(F)(F)c1ccc2sc(C(=O)N[C@H]3CCC[C@H]4CC[C@@H](C(=O)NCc5cnc6[nH]cnc6c5)N4C3=O)cc2c1` [Compound 1002, S,S′-(((((2-(((3S,6S,9aS)-3-(((3H-imidazo[4,5-b]pyridin-6-yl)methyl)carbamoyl)-5-oxooctahydro-1H-pyrrolo[1,2-a]azepin-6-yl)carbamoyl)benzo [b]thiophen-5-yl)difluoromethyl)phosphoryl)bis(oxy))bis(ethane-2,1-diyl)) bis(2,2-dimethyl-propanethioate)], the IC50 is less than 100 nM.
Regarding `CCCOC(=O)[C@H](CCOC)NP(=O)(Cc1ccc2sc(C(=O)N[C@H]3CCC[C@H]4CC[C@@H](C(=O)N5CC(c6cccnc6)C5)N4C3=O)cc2c1)Oc1ccccc1` (stereo partly drawn) [Compound 431, propyl O-methyl-N-(((2-(((3S,6S,9aS)-5-oxo-3-(3-(pyridin-3-yl)azetidine-1-carbonyl)octahydro-1H-pyrrolo[1,2-a]azepin-6-yl)carbamoyl)benzo [b]thiophen-5-yl)methyl)(phenoxy)phosphoryl)-L-homoserinate], the IC50 is 100 to 1000 nM.
For `Cc1ccncc1C1CN(C(=O)[C@@H]2CC[C@@H]3CCCC[C@H](NC(=O)c4cc5cc(CP(=O)(N[C@@H](C)C(=O)OCC(C)C)Oc6ccccc6)ccc5s4)C(=O)N32)C1` (stereo partly drawn) [Compound 282, isobutyl (((2-(((3S,6S,10aS)-3-(3-(4-methylpyridin-3-yl)azetidine-1-carbonyl)-5-oxodecahydropyrrolo [1,2-a]azocin-6-yl)carbamoyl)benzo [b]thiophen-5-yl)methyl)(phenoxy)phosphoryl)-L-alaninate], the IC50 was less than 100 nM.
Take `CCCOC(=O)[C@H](C)NP(=O)(Cc1ccc2sc(C(=O)N[C@H]3CCC[C@H]4CC[C@@H](C(=O)N5CC(c6cnc(F)cc6OC)C5)N4C3=O)cc2c1)Oc1ccccc1` (stereo partly drawn) [Compound 278, propyl (((2-(((3S,6S,9aS)-3-(3-(6-fluoro-4-methoxypyridin-3-yl)azetidine-1-carbonyl)-5-oxooctahydro-1H-pyrrolo[1,2-a]azepin-6-yl)carbamoyl)benzo [b]thiophen-5-yl)methyl)(phenoxy)phosphoryl)-L-alaninate]: the IC50 was 100 to 1000 nM.
The same measure for `COc1ccncc1C1CN(C(=O)[C@@H]2CC[C@@H]3CCC[C@H](NC(=O)c4cc5cc([C@@H](F)[P@](=O)(N[C@@H](C)C(=O)OCC(C)(C)C)Oc6ccccc6)ccc5s4)C(=O)N32)C1` (single isomer, unassigned) [Compound 1056]: less than 100 nM.
As for `COC[C@H](NP(=O)(Cc1ccc2sc(C(=O)N[C@H]3CCC[C@H]4CC[C@@H](C(=O)N5CC(c6cccnc6)C5)N4C3=O)cc2c1)Oc1ccccc1)C(=O)OCC(C)C` (stereo partly drawn) [Compound 945, isobutyl O-methyl-N-(((2-(((3S,6S,9aS)-5-oxo-3-(3-(pyridin-3-yl)azetidine-1-carbonyl)octahydro-1H-pyrrolo[1,2-a]azepin-6-yl)carbamoyl)benzo [b]thiophen-5-yl)methyl)(phenoxy)phosphoryl)-L-serinate], the IC50 is 100 to 1000 nM.
`CC(C)COC(=O)[C@H](C)NP(=O)(Oc1ccccc1)C(F)c1ccc2sc(C(=O)N[C@H]3CCC[C@H]4CC[C@@H](C(=O)N5CC(c6cnccc6F)C5)N4C3=O)cc2c1` (stereo partly drawn) [Compound 277, isobutyl ((fluoro(2-(((3S,6S,9aS)-3-(3-(4-fluoropyridin-3-yl)azetidine-1-carbonyl)-5-oxooctahydro-1H-pyrrolo[1,2-a]azepin-6-yl)carbamoyl)benzo [b]thiophen-5-yl)methyl)(phenoxy)phosphoryl)-L-alaninate]: the IC50 was less than 100 nM.
The result for `CCCCOC(=O)[C@@H]1CCCN1P(=O)(Cc1ccc2sc(C(=O)N[C@H]3CCC[C@H]4CC[C@@H](C(=O)N5CC(c6cccnc6)C5)N4C3=O)cc2c1)Oc1ccccc1` (stereo partly drawn) [Compound 1003, butyl (((2-(((3S,6S,9aS)-5-oxo-3-(3-(pyridin-3-yl)azetidine-1-carbonyl)octahydro-1H-pyrrolo[1,2-a]azepin-6-yl)carbamoyl)benzo [b]thiophen-5-yl)methyl)(phenoxy)phosphoryl)-L-prolinate] reads 1000 to 3000 nM.
As for `CCCOC(=O)[C@H](C)NP(=O)(Cc1ccc2sc(C(=O)N[C@H]3CCC[C@H]4CC[C@@H](C(=O)N5CC(c6cnccc6N6CCC6)C5)N4C3=O)cc2c1)Oc1ccccc1` (stereo partly drawn) [Compound 1031, propyl (((2-(((3S,6S,9aS)-3-(3-(4-(azetidin-1-yl)pyridin-3-yl)azetidine-1-carbonyl)-5-oxooctahydro-1H-pyrrolo[1,2-a]azepin-6-yl)carbamoyl)benzo [b]thiophen-5-yl)methyl)(phenoxy)phosphoryl)-L-alaninate], the IC50 is less than 100 nM.
For `CCCOC(=O)[C@H](COC)NP(=O)(Cc1ccc2sc(C(=O)N[C@H]3CCC[C@H]4CC[C@@H](C(=O)N5CC(c6cccnc6)C5)N4C3=O)cc2c1)Oc1ccccc1` (stereo partly drawn) [Compound 430, propyl O-methyl-N-(((2-(((3S,6S,9aS)-5-oxo-3-(3-(pyridin-3-yl)azetidine-1-carbonyl)octahydro-1H-pyrrolo[1,2-a]azepin-6-yl)carbamoyl)benzo [b]thiophen-5-yl)methyl)(phenoxy)phosphoryl)-L-serinate], the IC50 fell in the range of 100 to 1000 nM.
With `CCCCOC(=O)[C@H](C)NP(=O)(Cc1ccc2sc(C(=O)N[C@H]3CCC[C@H]4CC[C@@H](C(=O)N5CC(c6cccnc6)C5)N4C3=O)cc2c1)Oc1ccccc1` (stereo partly drawn) [Compound 279, butyl (((2-(((3S,6S,9aS)-5-oxo-3-(3-(pyridin-3-yl)azetidine-1-carbonyl)octahydro-1H-pyrrolo[1,2-a]azepin-6-yl)carbamoyl)benzo [b]thiophen-5-yl)methyl)(phenoxy)phosphoryl)-L-alaninate], the IC50 was less than 100 nM.
Consider `CCCOC(=O)[C@H](C)N[P@](=O)(Oc1ccccc1)[C@@H](F)c1ccc2sc(C(=O)N[C@H]3C[C@@H](C)C[C@H]4CC[C@@H](C(=O)N5CC(c6cnccc6OC)C5)N4C3=O)cc2c1` (single isomer, unassigned) [Compound 1059], for which the IC50 is less than 100 nM.
